In patent publication US20050004018A1, “Use of antitumoral compound in cancer therapy” (priority 2001, published 2005):

What was measured:
human progenitor cells = conditions: cited from earlier work
cancer patients [1] = assay: phase II programme, 3 hour every 3 weeks schedule; assay type: in vivo, human
Protocol: Two schedules (24 hour every 3 weeks and 3 hour every 3 weeks) reached the phase II programme. The phase II programme confirmed the activity against soft tissue sarcoma and ovarian cancer. However, the recommended starting dose for the 3 hour schedule had to be reduced because of serious toxicity. The recommended dose for the 24 hour schedule was 1500 μg /m^2 and the recommended dose for the 3 hour schedule is at present 1300 μg/m^2.
Serious increases of transaminases (grade 3-4) were more frequent with the 3 hour schedule than with the 24 hour schedule. […] This toxicity has improved with the amendment that reduces the starting dose to 1300 (grade 3 and 4 ALT in 38% and 8.5% of patients), although it would be desirable to reduce it further. Cholestasis is less severe and less frequent observing grade 1, 2 and 3 alkaline phosphatase in 50.4%, 6.5% and 1.7% (leading to an overall 58.6% that compares similarly with 57.7% over 24 hours) of patients. […] An infrequent but important toxicity was the renal toxicity, represented by creatinine abnormalities, that is also higher than in the 24 hour schedule. […]

cancer patients [2] = conditions: cited from earlier work
rats = conditions: single or fractionated dose, intravenous; cited from earlier work
cancer patients [3] = conditions: cited from earlier work; remark: listed apart in the source
[4] = 3 hour infusion, worst grade per patient
[5] = Per patient (3 h), number (percent)
[6] = starting dose reduced to 1300, % of patients
[7] = 1 hr infusion days 1-5 every 3 weeks

In the case of ecteinascidin 743 [ET-743], the “sensitivity of progenitor cells” value (human progenitor cells) is listed as “equal sensitivity of erythropoid and myeloid cells”, the “Alk Phosph, NCI-CTC Grade 1” value (cancer patients [1]; [4]) is listed as 115 (50.4) Number of patients (%) and the “Alk Phosph, NCI-CTC Grade 2” value (cancer patients [1]; [4]) is listed as 15 (6.5) Number of patients (%). The “Alk Phosph, NCI-CTC Grade 3” value (cancer patients [1]; [4]) was 4 (1.7) Number of patients (%), the “Alk Phosph, NCI-CTC Grade 4” value (cancer patients [1]; [4]) was 2 (0.8) Number of patients (%) and the “Bilirubin, NCI-CTC Grade 1” value (cancer patients [1]; [4]) was 59 (25.8) Number of patients (%). The “Bilirubin, NCI-CTC Grade 2” value (cancer patients [1]; [4]) was 38 (16.6) Number of patients (%), the “Bilirubin, NCI-CTC Grade 3” value (cancer patients [1]; [4]) was 6 (2.6) Number of patients (%) and the “Bilirubin, NCI-CTC Grade 4” value (cancer patients [1]; [4]) was 0 ^ Number of patients (%). The “Hemoglobin, NCI-CTC Grade 0-1” value (cancer patients [1]; [4]) was 132 (55) Number of patients (%), the “Hemoglobin, NCI-CTC Grade 2” value (cancer patients [1]; [4]) was 80 (33.4) Number of patients (%) and the “Hemoglobin, NCI-CTC Grade 3” value (cancer patients [1]; [4]) was 23 (9.6) Number of patients (%). For the same substance, the “Hemoglobin, NCI-CTC Grade 4” value (cancer patients [1]; [4]) was 4 (1.6) Number of patients (%), the “Neutrophils, NCI-CTC Grade 0-1” value (cancer patients [1]; [4]) was 59 (24.5) Number of patients (%) and the “Neutrophils, NCI-CTC Grade 2” value (cancer patients [1]; [4]) was 42 (17.4) Number of patients (%). For the same substance, the “Neutrophils, NCI-CTC Grade 3” value (cancer patients [1]; [4]) was 57 (23.6) Number of patients (%), the “Neutrophils, NCI-CTC Grade 4” value (cancer patients [1]; [4]) was 85 (35.2) Number of patients (%) and the “Platelets, NCI-CTC Grade 0-1” value (cancer patients [1]; [4]) was 170 (69.1) Number of patients (%). For the same substance, the “Platelets, NCI-CTC Grade 2” value (cancer patients [1]; [4]) was 26 (10.6) Number of patients (%), the “Platelets, NCI-CTC Grade 3” value (cancer patients [1]; [4]) was 31 (12.6) Number of patients (%) and the “Platelets, NCI-CTC Grade 4” value (cancer patients [1]; [4]) was 14 (5.6) Number of patients (%). The “SGOT/AST, NCI-CTC Grade 1” value (cancer patients [1]; [4]) was 17 (7.2) Number of patients (%), the “SGOT/AST, NCI-CTC Grade 2” value (cancer patients [1]; [4]) was 29 (12.3) Number of patients (%) and the “SGOT/AST, NCI-CTC Grade 3” value (cancer patients [1]; [4]) was 117 (49.7) Number of patients (%). The “SGOT/AST, NCI-CTC Grade 4” value (cancer patients [1]; [4]) was 58 (24.6) Number of patients (%), the “SGPT/ALT, NCI-CTC Grade 1” value (cancer patients [1]; [4]) was 13 (5.5) Number of patients (%) and the “SGPT/ALT, NCI-CTC Grade 2” value (cancer patients [1]; [4]) was 19 (8.1) Number of patients (%). For the same substance, the “SGPT/ALT, NCI-CTC Grade 3” value (cancer patients [1]; [4]) was 107 (45.7) Number of patients (%), the “SGPT/ALT, NCI-CTC Grade 4” value (cancer patients [1]; [4]) was 87 (37.1) Number of patients (%) and the “Increased transaminases (grade 3-4), cycles” value (cancer patients [1]; 3 hour schedule, % of cycles) was 58.3%. For the same substance, the “Grades 1-3 of bilirubin” value (cancer patients [1]; 3 hour schedule, % of patients) was 45%, the “Increased transaminases (grade 3-4), patients” value (cancer patients [1]; 3 hour schedule, % of patients) was 83.4% and the alkaline phosphatase overall (cancer patients [1]; 3 hour schedule, % of patients) was 58.6%. The “grade 1 alkaline phosphatase” value (cancer patients [1]; 3 hour schedule, % of patients) was 50.4%, the “grade 2 alkaline phosphatase” value (cancer patients [1]; 3 hour schedule, % of patients) was 6.5% and the “grade 3 alkaline phosphatase” value (cancer patients [1]; 3 hour schedule, % of patients) was 1.7%. The recommended dose (cancer patients [1]; 3 hour schedule, at present (reduced)) was 1300 μg/m^2, the “Grade 3-4 ALT” value (cancer patients [1]; 3 h schedule every three weeks) was 82.8% and the “Grade 3-4 Bilirubin” value (cancer patients [1]; 3 h schedule every three weeks) was 2.6%. The “Grade 3-4 Creatinine” value (cancer patients [1]; 3 h schedule every three weeks) was 2.3%, the “Grade 3-4 Creatinine Kinase” value (cancer patients [1]; 3 h schedule every three weeks) was 1.5% and the “Grade 3-4 Hemoglobin” value (cancer patients [1]; 3 h schedule every three weeks) was 11.3%. For the same substance, the “Grade 3-4 Neutrophils” value (cancer patients [1]; 3 h schedule every three weeks) was 58.3%, the “Grade 3-4 Platelets” value (cancer patients [1]; 3 h schedule every three weeks) was 18.7% and the “Creatinine abnormalities, NCI-CTC Grade 1” value (cancer patients [1]; [5]) was 44 (20.1). The “Creatinine abnormalities, NCI-CTC Grade 2” value (cancer patients [1]; [5]) was 10 (4.6), the “Creatinine abnormalities, NCI-CTC Grade 3” value (cancer patients [1]; [5]) was 5 (2.3) and the “Creatinine abnormalities, NCI-CTC Grade 4” value (cancer patients [1]; [5]) was 0 ^. For the same substance, the “grade 3 ALT” value (cancer patients [1]; [6]) was 38%, the “grade 4 ALT” value (cancer patients [1]; [6]) was 8.5% and the “DLT (dose limiting toxicity)” value (cancer patients [2]; 24hr infusion every 3 weeks) was “hematotoxicity”. For the same substance, the “MTD (maximum tolerated dose)” value (cancer patients [2]; 24hr infusion every 3 weeks) was 1800 μg/m^2, the “RD (recommended dose)” value (cancer patients [2]; 24hr infusion every 3 weeks) was 1500 μg/m^2 and the “Grade 2 or greater hyperbilirubinemia” value (cancer patients [2]; % of treatment courses at the RD) was 30%. For the same substance, the “Grade 3 or 4 transaminases, cycles” value (cancer patients [2]; at the RD, % of cycles) was 38%, the “Grade 3 or 4 transaminases, patients” value (cancer patients [2]; at the RD, % of patients) was 68% and the toxicity (rats) was “reversible hematological and hepatic toxicity”. The MTD (cancer patients [3]; [7]) was 380 μg/m^2/day, the RD (cancer patients [3]; [7]) was 325 μg/m^2/day and the cycles delayed (cancer patients [3]; at 325 μg/m^2/day (RD)) was 59%. The “median day of recovery to grade 1 for neutropenia” value (cancer patients [3]; at 325 μg/m^2/day (RD)) was 28 days, the “patients who developed DLT” value (cancer patients [3]; at 380 μg/m^2/day (MTD)) was 3 patients and the “Reversible grade 3 transaminases, cycles” value (cancer patients [3]; at the recommended dose, % of cycles) was 14%. For the same substance, the “Reversible grade 3 transaminases, patients” value (cancer patients [3]; at the recommended dose, % of patients) was 31%.
